Tested on: CTLL-2 cells
Experiment: CTLL-2 cell expansion / proliferation (binding) assay
Format: cell-based
Procedure: T cell expansion test of IL-2 variants in CTLL-2 cells. CTLL-2 cell expansion assay was performed using transiently expressed F42 variant supernatant from transfected engineered CHO cells. […] Cell proliferation was performed using Cell Titer Glo (Promega, WI). Luminescent signal was read on TECAN genios pro. […] A general procedure for studying the IL-2 variants of the present invention is shown in the following:
Utilizing a CTLL-2 cell expansion assay as disclosed in the Examples, 20 different IL-2 variants including 16 originally selected sites (wild type included) and 4 additional sites (K32, K48, K49, K76) known in the art were screened (Charych, D., et al., PLoS One, 12(7): p. e0179431, 2017). […] Identified variants were further analyzed for their binding capabilities after PEGylation.

## F42: IL-2 with unnatural amino acid (pAF) at F42, SEQ ID NO: 9
Transiently expressed variant supernatant from engineered CHO cells, Cell Titer Glo
  EC50: around 0.24 ng/mL
Wild type IL-2 = 100% proliferation
  function retained compared to wild type control: 95%
